Assay results as given in PubChem BioAssay AID248 (DTP/NCI, 2004).
“And” between values parts separate entries of the source, which are not always exact repeats. Identical values can stand only once. Inconclusive results and toxic doses are left out. Rule as the data show it: active = T/C of 150% or more; inactive = T/C below 125%.

System: L1210 leukemia ip in BDF1 mice, survival T/C
Assay: NCI In Vivo Anticancer Drug Screen. Data for tumor model L1210 Leukemia (intraperitoneal) in B6D2F1 (BDF1) mice
Conditions: endpoint: mean survival time, higher = longer survival
Procedure, shortened: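 Survival endpoint. Drug-treated group vs vehicle group, expressed as T divided by C. Tumor passaged by transplantation.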

[1] = dose: 100.0 mg/kg/injection, schedule: Q04DX003 (ip), vehicle: saline with Tween-80
[2] = dose: 200.0 mg/kg/injection, schedule: Q04DX003 (ip), vehicle: saline with Tween-80
[3] = dose: 400.0 mg/kg/injection, schedule: Q04DX003 (ip), vehicle: saline with Tween-80
[4] = dose: 50.0 mg/kg/injection, schedule: Q01DX009 (ip), vehicle: saline with Tween-80
[5] = dose: 100.0 mg/kg/injection, schedule: Q04DX002 (ip), vehicle: saline with Tween-80
[6] = dose: 100.0 mg/kg/injection, schedule: Q04DX003 (ip), vehicle: Klucel (hydroxypropylcellulose) (HPC)
[7] = dose: 200.0 mg/kg/injection, schedule: Q04DX003 (ip), vehicle: Klucel (hydroxypropylcellulose) (HPC)
[8] = dose: 400.0 mg/kg/injection, schedule: Q04DX003 (ip), vehicle: Klucel (hydroxypropylcellulose) (HPC)
[9] = dose: 100.0 mg/kg/injection, schedule: Q01DX009 (ip), vehicle: saline with Tween-80
[10] = dose: 200.0 mg/kg/injection, schedule: Q01DX009 (ip), vehicle: saline with Tween-80
[11] = dose: 200.0 mg/kg/injection, schedule: Q04DX002 (ip), vehicle: saline with Tween-80
[12] = dose: 100.0 mg/kg/injection, schedule: Q04DX002 (ip), vehicle: carboxymethylcellulose (CMC)
[13] = dose: 200.0 mg/kg/injection, schedule: Q04DX002 (ip), vehicle: carboxymethylcellulose (CMC)
[14] = dose: 400.0 mg/kg/injection, schedule: Q04DX002 (ip), vehicle: carboxymethylcellulose (CMC)
[15] = dose: 100.0 mg/kg/injection, schedule: Q01DX001 (ip), vehicle: saline
[16] = dose: 200.0 mg/kg/injection, schedule: Q01DX001 (ip), vehicle: saline
[17] = dose: 100.0 mg/kg/injection, schedule: Q01DX001 (ip), vehicle: Klucel (hydroxypropylcellulose) (HPC)
[18] = dose: 200.0 mg/kg/injection, schedule: Q01DX001 (ip), vehicle: Klucel (hydroxypropylcellulose) (HPC)
[19] = dose: 400.0 mg/kg/injection, schedule: Q01DX001 (ip), vehicle: Klucel (hydroxypropylcellulose) (HPC)
[20] = dose: 50.0 mg/kg/injection, schedule: Q01DX001 (ip), vehicle: carboxymethylcellulose (CMC)
[21] = dose: 100.0 mg/kg/injection, schedule: Q01DX001 (ip), vehicle: carboxymethylcellulose (CMC)
[22] = dose: 200.0 mg/kg/injection, schedule: Q01DX001 (ip), vehicle: carboxymethylcellulose (CMC)
[23] = dose: 400.0 mg/kg/injection, schedule: Q01DX001 (ip), vehicle: carboxymethylcellulose (CMC)

Measured: T/C

CC(=O)Nc1ccc2c(c1)C(=O)c1cc(F)ccc1-2
inactive: [1] 100 % of control | [2] 96 % of control | [3] 110 % of control

COC(=O)C(CCCCN=Cc1ccccc1O)N=Cc1ccccc1O.[Cu] (stereo unspecified)
inactive: dose: 6.25 mg/kg/injection, schedule: Q01DX009 (ip), vehicle: saline with Tween-80 96 % of control | dose: 12.5 mg/kg/injection, schedule: Q01DX009 (ip), vehicle: saline with Tween-80 93 % of control | dose: 25.0 mg/kg/injection, schedule: Q01DX009 (ip), vehicle: saline with Tween-80 96 % of control and 98 % of control | [4] 103 % of control | [1] 96 % of control

CC(C)N(CCNCC(Cc1ccccc1)c1ccccc1)C(C)C (stereo unspecified)
inactive: dose: 25.0 mg/kg/injection, schedule: Q04DX002 (ip), vehicle: saline with Tween-80 99 % of control | dose: 50.0 mg/kg/injection, schedule: Q04DX002 (ip), vehicle: saline with Tween-80 96 % of control | [5] 102 % of control

O=C1c2ccccc2C(=O)c2cc3cc(Cl)ccc3cc21
inactive: [6] 90 % of control | [7] 87 % of control | [8] 95 % of control

CN(C)c1ccc(-c2cc(C(=O)O)c3cc4ccccc4cc3n2)cc1
inactive: [4] 91 % of control | [9] 96 % of control | [5] 92 % of control | [10] 88 % of control | [11] 92 % of control

COC(=O)c1cc(S(=O)(=O)c2cc(C(=O)OC)c(O)cc2OC)c(OC)cc1O
inactive: [12] 95 % of control | [13] 95 % of control | [14] 98 % of control

CC(=O)NC(NNC(NC(C)=O)(c1ccccc1)c1ccccc1)(c1ccccc1)c1ccccc1
inactive: dose: 100.0 mg/kg/injection, schedule: Q04DX003 (ip), vehicle: saline 105 % of control | dose: 200.0 mg/kg/injection, schedule: Q04DX003 (ip), vehicle: saline 102 % of control | dose: 400.0 mg/kg/injection, schedule: Q04DX003 (ip), vehicle: saline 92 % of control

CCCCC1C(=O)OC(C(C)C(O)CCCN=C(N)N)C(C)C=C(C)CCCCC(O)CC(O)CC(O)CC(O)CC(O)C(OC2OC(CO)C(O)C2O)C=C(C)C(O)CCCC(O)CCCC(O)CCC(C)C1O (stereo unspecified)
inactive: dose: 0.71 mg/kg/injection, schedule: Q01DX Z (ip), vehicle: carboxymethylcellulose (CMC) 96 % of control

c1ccc(CNc2cnccn2)cc1
inactive: [15] 105 % of control | [16] 105 % of control

O/N=C1\CC(c2ccccc2)(c2ccccc2)c2cc(-c3ccccc3)c(-c3ccccc3)cc21
inactive: [4] 97 % of control | [9] 104 % of control | [10] 97 % of control

CCCCN=C=S
inactive: [5] 104 % of control | [11] 91 % of control

CCC1(CCCCBr)OCCO1
inactive: [17] 103 % of control | [18] 100 % of control | [19] 93 % of control

NNC(=S)N/N=C/c1ccccc1
inactive: [17] 93 % of control | [18] 93 % of control | [19] 100 % of control

O=c1cc(Nc2ccccc2)[nH]c(=O)[nH]1
inactive: [17] 92 % of control | [18] 93 % of control | [19] 95 % of control

O=C1OC(c2ccccc2)(C2(c3ccccc3)C=C(c3ccccc3)C(=O)O2)C=C1c1ccccc1 (stereo unspecified)
inactive: [17] 100 % of control | [6] 94 % of control | [18] 97 % of control | [7] 103 % of control | [19] 100 % of control | [8] 91 % of control

CCCCSC(=O)C(C)O (stereo unspecified)
inactive: [5] 99 % of control | [11] 89 % of control | dose: 400.0 mg/kg/injection, schedule: Q04DX002 (ip), vehicle: saline with Tween-80 86 % of control

CC(Br)(C(CC(=O)C1CC1)c1ccccc1)[N+](=O)[O-] (stereo unspecified)
inactive: dose: 25.0 mg/kg/injection, schedule: Q01DX009 (ip), vehicle: other 93 % of control | dose: 25.0 mg/kg/injection, schedule: Q04DX003 (ip), vehicle: other 100 % of control | [20] 108 % of control | dose: 50.0 mg/kg/injection, schedule: Q01DX009 (ip), vehicle: other 89 % of control and 90 % of control | dose: 50.0 mg/kg/injection, schedule: Q04DX003 (ip), vehicle: other 96 % of control | [21] 90 % of control | dose: 100.0 mg/kg/injection, schedule: Q01DX009 (ip), vehicle: other 91 % of control | dose: 100.0 mg/kg/injection, schedule: Q04DX003 (ip), vehicle: other 93 % of control and 103 % of control | [22] 92 % of control | [23] 95 % of control

COC1=C(Nc2cccc(C)c2)C(=O)C(OC)=C(Nc2cccc(C)c2)C1=O
inactive: [20] 94 % of control | [21] 96 % of control | [22] 94 % of control | [23] 91 % of control

CCCCCC(=O)N(CCCC)CCCC
inactive: [21] 103 % of control | dose: 100.0 mg/kg/injection, schedule: Q01DX009 (ip), vehicle: carboxymethylcellulose (CMC) 97 % of control and 98 % of control | [12] 102 % of control and 103 % of control | dose: 100.0 mg/kg/injection, schedule: Q04DX003 (ip), vehicle: carboxymethylcellulose (CMC) 98 % of control | [22] 110 % of control | dose: 200.0 mg/kg/injection, schedule: Q01DX009 (ip), vehicle: carboxymethylcellulose (CMC) 94 % of control and 103 % of control | [13] 97 % of control and 105 % of control | dose: 200.0 mg/kg/injection, schedule: Q04DX003 (ip), vehicle: carboxymethylcellulose (CMC) 97 % of control | [23] 106 % of control | dose: 400.0 mg/kg/injection, schedule: Q01DX009 (ip), vehicle: carboxymethylcellulose (CMC) 98 % of control | [14] 97 % of control and 109 % of control | dose: 400.0 mg/kg/injection, schedule: Q04DX003 (ip), vehicle: carboxymethylcellulose (CMC) 97 % of control

Cc1ccc(NC(=O)Nc2cccc(C(F)(F)F)c2)cc1C
inactive: dose: 100.0 mg/kg/injection, schedule: Q01DX009 (ip), vehicle: Klucel (hydroxypropylcellulose) (HPC) 98 % of control | dose: 200.0 mg/kg/injection, schedule: Q01DX009 (ip), vehicle: Klucel (hydroxypropylcellulose) (HPC) 98 % of control | dose: 400.0 mg/kg/injection, schedule: Q01DX009 (ip), vehicle: Klucel (hydroxypropylcellulose) (HPC) 91 % of control

Cc1ccc(C2(C)CC/C(=N\NC(=O)c3ccccc3)c3cc(C)c(C)cc32)cc1C (stereo unspecified)
inactive: [15] 97 % of control | [16] 98 % of control | dose: 400.0 mg/kg/injection, schedule: Q01DX001 (ip), vehicle: saline 104 % of control

Clc1cc2c(c3c1CONC3)OCO2
inactive: [1] 92 % of control | [2] 90 % of control | [3] 100 % of control
